# Data as given in ChEMBL document CHEMBL1126861 (J Med Chem, 1993).
# Where a SMILES comes first, the peptide text is derived from it.
# Columns and labels:
# [1] = biological target: Mu-type opioid receptor (Rattus norvegicus, UniProt P33535); experiment: Tested for binding affinity against mu opioid receptor fby displacing [3H]- DAMGO radioligand from rat brain membrane preparations
# [2] = biological target: Delta-type opioid receptor (Rattus norvegicus, UniProt P33533); experiment: Tested for binding affinity against delta opioid receptor by displacing [3H]- DSLET radioligand from rat brain membrane preparations
# Chain of Delta-type opioid receptor (P33533 whole entry): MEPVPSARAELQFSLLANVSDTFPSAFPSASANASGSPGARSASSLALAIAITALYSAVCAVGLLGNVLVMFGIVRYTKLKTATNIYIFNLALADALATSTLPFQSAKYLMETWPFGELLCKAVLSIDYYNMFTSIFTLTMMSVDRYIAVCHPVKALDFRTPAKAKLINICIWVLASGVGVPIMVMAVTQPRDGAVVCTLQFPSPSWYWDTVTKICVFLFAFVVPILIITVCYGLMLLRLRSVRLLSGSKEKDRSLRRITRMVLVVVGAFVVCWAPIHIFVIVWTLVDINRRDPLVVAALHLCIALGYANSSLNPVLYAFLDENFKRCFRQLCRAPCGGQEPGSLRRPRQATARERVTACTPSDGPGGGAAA
# Chain of Mu-type opioid receptor (P33535 whole entry): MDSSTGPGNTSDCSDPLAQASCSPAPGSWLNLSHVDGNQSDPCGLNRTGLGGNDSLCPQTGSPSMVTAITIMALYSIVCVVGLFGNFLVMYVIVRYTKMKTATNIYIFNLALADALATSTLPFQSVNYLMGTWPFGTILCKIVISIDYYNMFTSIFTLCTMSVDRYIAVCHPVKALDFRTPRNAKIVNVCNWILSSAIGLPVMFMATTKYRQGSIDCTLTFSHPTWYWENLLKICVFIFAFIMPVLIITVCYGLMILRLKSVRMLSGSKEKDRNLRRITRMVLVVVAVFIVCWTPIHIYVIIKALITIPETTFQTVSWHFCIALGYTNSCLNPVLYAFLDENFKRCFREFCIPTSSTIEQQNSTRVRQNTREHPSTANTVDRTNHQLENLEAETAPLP
SMILES,Ki [1],Ki [2]
N[C@@H](Cc1ccc(O)cc1)C(=O)N1Cc2ccccc2C[C@H]1C(=O)N[C@@H](Cc1ccccc1)C(=O)N[C@@H](Cc1ccccc1)C(=O)O (HELM PEPTIDE1{Y.[Tic].F.F}$$$$V2.0),3230 nM,0.308 nM
N[C@@H](Cc1ccc(O)cc1)C(=O)N1Cc2ccccc2C[C@H]1C(=O)N[C@@H](Cc1ccccc1)C(=O)O (HELM PEPTIDE1{Y.[Tic].F}$$$$V2.0),,1.94 nM
CC(C)[C@H](NC(=O)[C@H](CC(=O)O)NC(=O)[C@H](Cc1ccccc1)NC(=O)[C@@H](C)NC(=O)[C@@H](N)Cc1ccc(O)cc1)C(=O)N[C@H](C(=O)NCC(N)=O)C(C)C [DELTORPHIN C],3930 nM,6.43 nM
Oc1ccc2c3c1O[C@H]1c4[nH]c5ccccc5c4C[C@@]4(O)[C@@H](C2)N(CC2CC2)CC[C@]314 [NALTRINDOLE],,0.182 nM
